Test results published in article PMC7651685 (Psychopharmacology, 2020).
Several values for one entry are separate records, joined by “and”; a condition that tells them apart may be missing. Identical values can stand only once. Counter-ions that a name gives are not always drawn.

Tests used:
plasma protein = assay: Plasma protein binding; conditions: for Free plasma concentration (fraction): as fraction; for Free plasma concentration (fraction) / Free plasma concentration: from plasma protein binding
[1] = Tolerability and vital signs after i.v. administration; format: in vivo, rhesus macaques; conditions: for Changes in heart rate, respiratory rate, blood pressure, oxygen saturation and temperature compared with baseline: after i.v. administration, data not shown; for Tolerability of i.v. administration: all doses examined
Description: PET experiments within an animal were spaced at least 2 weeks apart to allow recovery from anesthesia. Animals were fasted for 18–24 h prior to each PET scan experiment. At 2–2.5 h before radiotracer injection, the animal was anesthetized with ketamine (10–15 mg/kg) and glycopyrrolate 0.01 mg/kg i.m., transferred to the PET camera, and intubated with an endotracheal tube for continued anesthesia with 2.0–2.5% isoflurane administered through a rebreathing circuit. An intravenous line was placed and used for injection of radiotracer and administration of the drug. A heated water blanket was used to maintain normal body temperature (37 °C). Vital signs, including heart rate, blood pressure, respiration rate, oxygen saturation, and body temperature, were monitored approximately every 1 to 15 min during the study (data not shown).
Animals tolerated i.v. administration of DAS or MPH at all doses examined.

[2] = cited from earlier work
[3] = tested on: dopamine transporters (DAT); assay: [18F]-FE-PE2I PET displacement: DAT occupancy, displacement half-time and brain entry (modified GRTM); format: in vivo, rhesus macaques (Macaca mulatta); conditions: for Brain entry time, Caudate / Brain entry time, Putamen / Brain entry time, Mean: modified GRTM; for Brain entry time, Mean: mean over animals and regions; for Percent maximum displacement (= % DAT occupancy), Caudate\Putamen mean, Mean ± SD: group mean of four animals; for Percent maximum displacement (= % DAT occupancy), Caudate\putamen mean, Mean: mean of two animals
Description: Two male and two female rhesus macaques (Macaca mulatta) housed at the Yale University School of Medicine (New Haven, CT) were used for the [^18F]-FE-PE2I imaging. In all experiments, [^18F]-FE-PE2I was administered as a bolus plus constant infusion (Kbol from 168 to 216 min; total radioactivity = 162 ± 27 MBq) over 4 h to establish steady-state DAT binding. Bolus/infusion delivery parameters (i.e., Kbol) for [^18F]-FE-PE2I for each monkey were determined from baseline [^18F]-FE-PE2I scans that utilized single bolus intravenous injections of the radiotracer (Carson et al. [1993]). Identical procedures were used for list-mode image acquisition with a Siemens Focus 220 PET scanner for all DAT brain studies. The dynamic PET imaging series were reconstructed into 57 frames (6 × 0.5 min, 3 × 1 min, 2 × 2 min, and 46 × 5 min) using filtered back projection with standard corrections for random, scatter, and attenuation provided by the camera manufacturer.
At 2 h into the [^18F]-FE-PE2I scan, under tracer steady-state conditions, DAS or MPH was administered i.v. either as a 3 min i.v. bolus or as a bolus plus 4-step infusion over 40 min (four 10-min steps). The drug bolus experiments were carried out in all four rhesus macaques, each receiving DAS at 0.2 and 0.1 mg/kg and MPH at 0.5 and 0.1 mg/kg. The drug bolus plus 4-step infusion experiments were conducted in two rhesus macaques, each receiving DAS bolus injection over 30 s followed by a 4-step infusion over 40 min (four 10-min steps, 1.55, 1.45, 1.4, 1.3 mg) and MPH bolus injection over 30 s followed by an infusion over 40 min (four 10-min steps, 1.15, 1, 0.85, 0.75 mg).
Reconstructed dynamic PET images were transferred and analyzed using the image processing software package PMOD 3.6 (PMOD Technologies, Zurich, Switzerland). The PET images were normalized to an MR rhesus brain template (Rohlfing et al. [2012]) and a region of interest (ROI) atlas including the caudate nucleus, putamen, and cerebellar cortex was applied. Average activity concentration (kBq/cc) within each ROI was determined and time-activity curves (TAC) representing the regional brain activity concentration over time were generated. TACs were additionally expressed in SUV units (g/ml) by normalizing by the weight of the animal and the injected dose.
Reductions in radiotracer binding following administration of DAS or MPH were used to determine DAT occupancy while reductions in radiotracer binding over time were used to estimate brain entry and binding rates. The displacement half-time is defined as the time it takes from drug administration until 50% of maximal tracer displacement is achieved. Tracer displacement half-times were estimated using average uptake levels from the baseline and displacement experiments and expressing the change in standardized uptake values (SUV) units as a fraction (normalized) of the observed SUV difference at the end of the experiment. Normalized SUV values for caudate and putamen respectively were plotted against time for each dose of DAS and MPH respectively to estimate the drug displacement half-time.
Brain entry of DAS and MPH was determined by analyzing the [^18F]-FE-PE2I TACs in the putamen and caudate nucleus using a kinetic model using the cerebellar cortex as a reference region. The kinetic model is based on the generalized reference tissue model (GRTM; Votaw et al. [2002]) and a recent report of brain entry and binding rates measurement (Nicolas et al. [2016]). […] The half-life of the brain entry and binding of the drug was estimated as ln(2)/α. The kinetic model employs 5 parameters: R1, BPND, r, α, and k2′ where R1 is the relative tracer influx rate constant and k2′ is the reference tissue tracer efflux rate constant. The maximum occupancy was constrained to the measured displacement, while k2′ and α were constrained to a common value across the putamen and caudate nucleus.

[4] = 0.1 mg/kg MPH, bolus administration, individual animals A-D
[5] = 0.5 mg/kg MPH, bolus administration, individual animals A-D
[6] = 4.3 mg MPH, bolus + 4 step infusion, individual animals A, B
[7] = MPH 0.1 mg/kg i.v. 3 min bolus, individual animals A-D
[8] = MPH 0.5 mg/kg i.v. 3 min bolus, individual animals A-D
[9] = MPH 4.3 mg, bolus plus 4-step infusion over 40 min, individual animals A, B
[10] = 0.1 mg/kg DAS, bolus administration, individual animals A-D
[11] = 0.2 mg/kg DAS, bolus administration, individual animals A-D
[12] = 6 mg DAS, bolus + 4 step infusion, individual animals A, B
[13] = DAS 0.1 mg/kg i.v. 3 min bolus, individual animals A-D
[14] = DAS 0.2 mg/kg i.v. 3 min bolus, individual animals A-D
[15] = DAS 6.0 mg, bolus plus 4-step infusion over 40 min, individual animals A, B

Structure (SMILES): COC(=O)C(c1ccccc1)C1CCCCN1 (racemic) [MPH, (±)-Methyl α-Phenyl-α-(2-piperidyl)acetate hydrochloride, reference compound]
- Free plasma concentration higher than that of DAS (plasma protein; MPH relative to DAS): ~30 fold
- Free plasma concentration (fraction) (plasma protein): 0.86
- Free plasma concentration (plasma protein): 86%
- Changes in heart rate, respiratory rate, blood pressure, oxygen saturation and temperature compared with baseline [1]: No changes outside physiologically accepted limits
- Tolerability of i.v. administration [1]: tolerated
- Time to peak (oral absorption) ([2]; oral, ref Koblan et al. [2016]): 2 to 3 h
- Averaged displacement half-time (between caudate and putamen) ([3]; 0.1 mg/kg MPH i.v. bolus): 15.5 min
- Brain entry time, Caudate [3, 4]: 2.57 min and 3.41 min and 2.60 min and 3.44 min
- Brain entry time, Putamen [3, 4]: 2.34 min and 2.59 min and 2.91 min and 4.28 min
- Brain entry time, Mean ([3]; 0.1 mg/kg MPH, bolus administration): 3 min and 3.02 ± 0.65 min and 3.02 min
- Averaged displacement half-time (between caudate and putamen) ([3]; 0.5 mg/kg MPH i.v. bolus): 11.5 min
- Brain entry time, Caudate [3, 5]: 2.25 min and 2.19 min and 1.78 min and 2.65 min
- Brain entry time, Putamen [3, 5]: 2.07 min and 2.08 min and 2.09 min and 2.00 min
- Brain entry time, Mean ([3]; 0.5 mg/kg MPH, bolus administration): 2 min and 2.14 ± 0.25 min and 2.14 min
- Brain entry time, Caudate [3, 6]: 7.15 min and 6.48 min
- Brain entry time, Putamen [3, 6]: 5.77 min and 7.69 min
- Brain entry time, Mean ([3]; 4.3 mg MPH, bolus + 4 step infusion): 6.77 min
- Percent maximum displacement (= % DAT occupancy), Caudate\Putamen mean, Mean ± SD ([3]; MPH 0.1 mg/kg i.v. 3 min bolus): 69% and 68.60 ± 5.21%
- Percent maximum displacement (= % DAT occupancy), Caudate nucleus [3, 7]: 72.4% and 72.7% and 64.2% and 60.4%
- Percent maximum displacement (= % DAT occupancy), Caudate\Putamen mean [3, 7]: 73.1% and 63.6% and 64.6%
- Percent maximum displacement (= % DAT occupancy), Putamen [3, 7]: 73.7% and 73.5% and 62.9% and 68.8%
- Percent maximum displacement (= % DAT occupancy), Caudate\Putamen mean, Mean ± SD ([3]; MPH 0.5 mg/kg i.v. 3 min bolus): 88% and 88.20 ± 2.62%
- Percent maximum displacement (= % DAT occupancy), Caudate nucleus [3, 8]: 91.7% and 87.9% and 83.9% and 87.0%
- Percent maximum displacement (= % DAT occupancy), Caudate\Putamen mean [3, 8]: 91.3% and 88.5% and 84.9% and 88.1%
- Percent maximum displacement (= % DAT occupancy), Putamen [3, 8]: 90.9% and 89.0% and 85.9% and 89.1%
- Percent maximum displacement (= % DAT occupancy), Caudate nucleus [3, 9]: 87.9% and 90.2%
- Percent maximum displacement (= % DAT occupancy), Caudate\Putamen mean [3, 9]: 88.9% and 89.5%
- Percent maximum displacement (= % DAT occupancy), Putamen [3, 9]: 89.9% and 88.9%
- Percent maximum displacement (= % DAT occupancy), Caudate\putamen mean, Mean ([3]; MPH 4.3 mg, bolus plus 4-step infusion over 40 min): 89.2%
- Brain entry faster than DAS ([3]; bolus + 4 step infusion, matched delivery, MPH relative to DAS): ~3 fold
- Displacement of [18F]-FE-PE2I / DAT occupancy faster than DAS (displacement half-times) ([3]; i.v. bolus, MPH relative to DAS): approximately 3 fold

Structure (SMILES): N[C@@H]1CC[C@@H](c2ccc(Cl)c(Cl)c2)c2ccccc21 [DAS, (1R,4S)-4-(3,4-dichlorophenyl)-1,2,3,4-tetra-hydronaphthalen-1-amine]
- Free plasma concentration (fraction) (plasma protein): 0.03
- Free plasma concentration (plasma protein): 3%
- Changes in heart rate, respiratory rate, blood pressure, oxygen saturation and temperature compared with baseline [1]: No changes outside physiologically accepted limits
- Tolerability of i.v. administration [1]: tolerated
- t1/2 (elimination) ([2]; human, in vivo, po): 47 to 77 h
- tmax ([2]; oral administration in humans): 10 to 12 h
- Averaged displacement half-time (between caudate and putamen) ([3]; 0.1 mg/kg DAS i.v. bolus): 40 min
- Brain entry time, Caudate [3, 10]: 18.91 min and 27.13 min and 25.06 min and 19.23 min
- Brain entry time, Putamen [3, 10]: 15.35 min and 18.83 min and 33.22 min and 19.5 min
- Brain entry time, Mean ([3]; 0.1 mg/kg DAS, bolus administration): 22 min and 22.15 ± 5.85 min and 22.15 min
- Averaged displacement half-time (between caudate and putamen) ([3]; 0.2 mg/kg DAS i.v. bolus): 31 min
- Brain entry time, Caudate [3, 11]: 19.90 min and 19.65 min and 12.09 min and 13.12 min
- Brain entry time, Putamen [3, 11]: 11.47 min and 17.71 min and 12.60 min and 16.03 min
- Brain entry time, Mean ([3]; 0.2 mg/kg DAS, bolus administration): 15 min and 15.32 ± 3.45 min and 15.32 min
- Brain entry time, Caudate [3, 12]: 16.07 min and 16.34 min
- Brain entry time, Putamen [3, 12]: 16.33 min and 18.57 min
- Brain entry time, Mean ([3]; 6 mg DAS, bolus + 4 step infusion): 16.83 min
- Percent maximum displacement (= % DAT occupancy), Caudate\Putamen mean, Mean ± SD ([3]; DAS 0.1 mg/kg i.v. 3 min bolus): 54% and 54.48 ± 10.04%
- Percent maximum displacement (= % DAT occupancy), Caudate nucleus [3, 13]: 56.1% and 49.9% and 40.8% and 53.4%
- Percent maximum displacement (= % DAT occupancy), Caudate\Putamen mean [3, 13]: 61.2% and 52.5% and 41.1% and 63.1%
- Percent maximum displacement (= % DAT occupancy), Putamen [3, 13]: 66.3% and 55.0% and 41.5% and 72.8%
- Percent maximum displacement (= % DAT occupancy), Caudate\Putamen mean, Mean ± SD ([3]; DAS 0.2 mg/kg i.v. 3 min bolus): 68% and 68.13 ± 10.30%
- Percent maximum displacement (= % DAT occupancy), Caudate nucleus [3, 14]: 64.8% and 67.9% and 70.1% and 50.7%
- Percent maximum displacement (= % DAT occupancy), Caudate\Putamen mean [3, 14]: 76% and 72.5% and 71% and 53%
- Percent maximum displacement (= % DAT occupancy), Putamen [3, 14]: 87.3% and 77.1% and 72% and 55.3%
- Percent maximum displacement (= % DAT occupancy), Caudate nucleus [3, 15]: 83.7% and 82.0%
- Percent maximum displacement (= % DAT occupancy), Caudate\Putamen mean [3, 15]: 81.6% and 85.6% and 81.7%
- Percent maximum displacement (= % DAT occupancy), Putamen [3, 15]: 87.4% and 81.3%
- Percent maximum displacement (= % DAT occupancy), Caudate\putamen mean, Mean ([3]; DAS 6.0 mg, bolus plus 4-step infusion over 40 min): 83.6%
- Brain entry / DAT occupancy rate slower than MPH ([3]; i.v. administration, DAS relative to MPH): ~ 7 fold and 5-11 fold
- DAT RO50 from this study ([3]; rhesus monkey, plasma level): 3.5 ng/mL
